“And” between values parts separate entries of the source, which are not always exact repeats. Equal entries are not always repeated.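 Exposure lasted 48 hours, with cells grown in 96-well plates and compounds tested at five concentrations. At the GI50, growth is halved. TGI: concentration producing complete growth inhibition.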
Legend:
Test in all cases: DTP human tumour cell line panel, 48 h
TK-10 renal = test system: TK-10 renal
ACHN renal = test system: ACHN renal
NCI-H226 lung = test system: NCI-H226 lung
RXF 393 renal = test system: RXF 393 renal
HCC-2998 colon = test system: HCC-2998 colon
HT29 colon = test system: HT29 colon
A549 NSCLC = test system: A549 NSCLC
NCI-H522 lung = test system: NCI-H522 lung
U251 CNS = test system: U251 CNS
MDA-MB-231 breast = test system: MDA-MB-231 breast

Compound	GI50 (TK-10 renal)	TGI (TK-10 renal)	GI50 (ACHN renal)	TGI (ACHN renal)	TGI (NCI-H226 lung)	GI50 (RXF 393 renal)	TGI (RXF 393 renal)	GI50 (HCC-2998 colon)	TGI (HCC-2998 colon)	GI50 (HT29 colon)	TGI (HT29 colon)	GI50 (A549 NSCLC)	TGI (A549 NSCLC)	GI50 (NCI-H522 lung)	TGI (NCI-H522 lung)	GI50 (U251 CNS)	TGI (U251 CNS)	GI50 (NCI-H226 lung)	GI50 (MDA-MB-231 breast)	TGI (MDA-MB-231 breast)
N#Cc1c(N)nc(N2CCOCC2)c(C#N)c1-c1ccccn1	> 100 µM	> 100 µM	> 100 µM	> 100 µM	> 100 µM	> 100 µM	> 100 µM	> 82 µM	> 100 µM	> 100 µM	> 100 µM	> 100 µM	> 100 µM	> 100 µM	> 100 µM	> 100 µM	> 100 µM			
Cc1cn2c(/C=N/N=C(N)N)c(-c3ccccn3)nc2s1	16.1 µM	32.8 µM	21.8 µM	51.7 µM	> 58.2 µM	5.9 µM	18.1 µM			19.4 µM	> 92.8 µM	21.1 µM	> 70.1 µM	14.2 µM	53.3 µM	19.1 µM	45.1 µM	25.1 µM	17.2 µM	39.6 µM
C=C1C(OC(=O)/C=C/c2ccccc2)CC(OC(C)=O)C2(C)C1CC1CC(OC(C)=O)C(C)=C(C(OC(C)=O)C2OC(C)=O)C1(C)C (stereo unspecified)		> 100 µM			> 100 µM				> 100 µM		> 100 µM		> 100 µM		> 100 µM		> 100 µM			
COC(=O)C12OCC34C(CC5C(C)C6=CC(=O)OC6=CC5(C)C3C(O)C1O)OC(=O)C(O)C24 (stereo unspecified)	0.534 µM	58.2 µM	0.486 µM	17.1 µM		0.403 µM	4.49 µM	0.075 µM	0.347 µM and 0.676 µM	1.68 µM	0.674 µM	0.415 µM	23.2 µM	0.0501 µM		0.0446 µM		0.0875 µM		
CC1(N)CCN(c2cnc(-c3cccc(Cl)c3Cl)c(N)n2)CC1	2.8 µM	53.2 µM	10.9 µM	> 100 µM	> 100 µM			22 µM	77.6 µM	26.7 µM	> 100 µM	16.6 µM	> 100 µM	14.9 µM	65.8 µM	9.02 µM	91.2 µM	3.2 µM	18.2 µM	48.7 µM
C/C=C(\CCOS(=O)(=O)c1ccc(C)cc1)[Si](C)(C)C		> 100 µM		> 100 µM			> 100 µM		> 100 µM		> 100 µM		> 100 µM		> 100 µM		> 100 µM			
O=NNc1ccc(Sc2ccc(NN=O)cn2)nc1		> 100 µM		> 100 µM	> 100 µM				> 100 µM		> 100 µM		> 100 µM		> 100 µM		> 100 µM			> 100 µM
CC(=O)O[C@@]1(C)[C@@H](C)C(=O)O[C@@H]2CCN3CC=C(COC(=O)[C@]1(C)O)[C@H]23		> 100 µM		> 100 µM	> 100 µM				> 100 µM		> 100 µM		> 100 µM		> 100 µM		> 100 µM			
O=C1C2C(C(=O)N1c1ccccc1)C1([N+](=O)[O-])C=C3c4ccccc4N(C(=O)c4ccccc4)C32C2C(=O)N(c3ccccc3)C(=O)C21 (stereo unspecified)		> 100 µM		> 100 µM					> 100 µM		> 100 µM		> 100 µM		> 100 µM		> 100 µM			
NC1=NN(c2ccccc2)C(=O)C1C(=O)C(=O)Nc1nccs1 (stereo unspecified)		> 100 µM		> 100 µM	> 100 µM		> 100 µM		> 100 µM		> 100 µM		> 100 µM		> 100 µM		> 100 µM			
Cc1ccc(C(=O)/C=C/c2cccc([N+](=O)[O-])c2)cc1		> 100 µM		> 100 µM	> 100 µM		> 74.8 µM		> 92 µM		> 66.1 µM		> 100 µM		> 100 µM		> 55.5 µM			
Cc1cccc(C(C)(C)C)c1NC(=O)CCc1nc(=S)[nH][nH]1		> 100 µM		> 100 µM	> 100 µM		> 100 µM		> 100 µM		> 100 µM		> 100 µM		> 100 µM		> 100 µM			
CC1(C)NCCC[C@]2(C)[C@H]3CC[C@@H]4[C@H]5[C@H](C(=O)/C=C/c6ccccn6)CC[C@]5(CO)CC[C@@]4(C)[C@]3(C)CC[C@@H]12	4.8 µM	24.8 µM	3.58 µM	13.6 µM	20.7 µM	2.51 µM	8.08 µM			2.85 µM	11.3 µM	2.88 µM	11.2 µM	1.81 µM	4.45 µM	1.68 µM	3.24 µM	4.24 µM	2.29 µM	5.64 µM
COc1cc(-c2csc(NC(=O)Nc3ccc(C(F)(F)F)cc3)n2)cc(OC)c1OC			2.11 µM	6.13 µM	8.4 µM	2.18 µM	5.89 µM	2.71 µM	9.34 µM	2.39 µM	7.08 µM	2.74 µM	11.7 µM	1.9 µM	5.88 µM	1.97 µM	4.32 µM	2.35 µM	1.55 µM	3.69 µM
CC(=O)O[C@H](C[C@H](C(C)C)N(C)C(=O)[C@@H](NC(=O)[C@H]1CCCN1C)C(C)C)c1nc(C(=O)N[C@@H](Cc2ccccc2)C[C@H](C)C(=O)O)c(C)s1	> 16.7 µM	> 16.7 µM				< 0.00167 µM	> 16.7 µM	0.00252 µM	> 16.7 µM	< 0.00167 µM	> 16.7 µM	0.0155 µM	> 16.7 µM	< 0.00167 µM	< 0.00167 µM	< 0.00167 µM	> 16.7 µM		0.00292 µM	> 16.7 µM
CC(=O)c1c(CO[N+](=O)[O-])n([O-])c2ccccc2[n+]1=O		> 100 µM		> 100 µM	> 100 µM						> 100 µM		> 100 µM		> 100 µM		> 100 µM			> 100 µM
O=C(CC(=O)c1cccc2ccccc12)C(=O)NC1C2CC3CC(C2)CC1C3 (stereo unspecified)		> 100 µM		> 100 µM	> 100 µM				> 100 µM		> 100 µM		> 100 µM		> 100 µM		> 100 µM			
Cc1cccc2c1CCC21OC(=O)c2c1ccc1ccccc21 (stereo unspecified)		> 100 µM		> 100 µM	> 100 µM		> 100 µM		> 100 µM		> 100 µM		> 100 µM		> 100 µM		> 100 µM			

Reference: PubChem BioAssay (NCI)
